In patent US20260042764A1, “COMPOSITIONS AND METHODS FOR INHIBITION OF KRAS” (TheRas, Inc., priority 2022, published 2026):

Tests used:
[1] = molecular target: T1, Avi-KRAS G12C (2-169) GTP/RAF1 RBD-3xFLAG (51-131) (Homo sapiens, UniProt P01116, G12C); assay: Raf1-KRAS G12C-GTP disruption HTRF assay (Biological Example 3); format: binding; settings: KRAS G12C, GTP-loaded
T1 construct: Avi-KRAS G12C (2-169)
Method: (§1) Biological Example 3: Disrupting RAS-Effector Binding HTRF Assay
(§2) A protein:protein interaction (PPI) Homogeneous Time Resolved Fluorescence (HTRF) assay was used to determine the effectiveness of compounds in disrupting KRAS protein and effector (RAF1) binding.
(§3) The HTRF assay used the following reagents and proteins: (i) 50 nM Avi-KRAS G12D (2-169) GTP/RAF1 RBD-3xFLAG (51-131): (ii) 50 nM Avi-KRAS G12C (2-169) GTP/RAF1 RBD-3xFLAG (51-131): (iii) 50 nM Avi-KRAS G12V (2-169) GTP/RAF1 RBD-3xFLAG (51-131); (iv) 50 nM Avi-KRAS WT (2-169) GTP/RAF1 RBD-3xFLAG (51-131); and (v) 75 nM 3xFLAG-RAF1 RBD (51-131)-Avi. The assay buffer included: 50 mM Tris pH 7.5 (Invitrogen, 15567-027), 100 mM NaCl (Sigma, S5150-IL), 5 mM MgCl2 (Sigma, 63069), 0.1% BSA (Sigma, A7030), 0.01% Tween 20 (Sigma, P7949), 10% DMSO (Cell Signaling, 12611). The bead buffer included: 50 mM Tris pH 7.5 (Invitrogen, 15567-027), 0.01% Tween 20 (Sigma, P7949). An assay volume of 20 μL was used in a 384 well plate-low volume format. Compound titration: 30-0.005 μM, 3x dilution series.
(§4) The HTRF assay employed the following protocol:
(§5) Compounds were dispensed in assay plate (384-well, Grenier Bio-One #784075) using Echo (model 555) with dose response settings: 200 nL final volume, titration from 30 μM as a 10-point dilution series. Proteins and HTRF reagents were mixed and dispensed onto plates, 20 μL per well, and then incubated for 1 h at room temperature, with 700 rpm shaking.
(§6) Plates were analyzed on an Envision plate reader using the following setting: Excitation 320 nm, Bandwidth 75 nm; Emission 615 nm, Bandwidth 85 nm; Gain 100%; Flashes 100; Lag 60 μs. Data was reported as percentage of activity, with DMSO as 100%. Data was plotted and analyzed using Prism 8.
(§7) The biochemical Raf1-KRAS G12D/G12V/G12C/WT-GTP disruption assay IC50 of selected compounds described herein are shown in Table 12.

[2] = molecular target: T2, Avi-KRAS WT (2-169) GTP/RAF1 RBD-3xFLAG (51-131) (Homo sapiens, UniProt P01116); assay: Raf1-KRAS WT-GTP disruption HTRF assay (Biological Example 3); format: binding; settings: KRAS WT, GTP-loaded
T2 construct: Avi-KRAS WT (2-169)
T2 sequence (P01116 2-169 isoform P01116-2): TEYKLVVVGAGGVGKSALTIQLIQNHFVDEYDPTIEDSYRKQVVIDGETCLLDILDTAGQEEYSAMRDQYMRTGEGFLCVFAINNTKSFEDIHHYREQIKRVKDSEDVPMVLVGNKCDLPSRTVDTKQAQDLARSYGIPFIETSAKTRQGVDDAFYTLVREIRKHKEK
Method: as §1, §2, §3, §4, §5, §6, §7

[3] = molecular target: T3, Avi-KRAS G12D (2-169) GTP/RAF1 RBD-3xFLAG (51-131) (Homo sapiens, UniProt P01116, G12D); assay: Raf1-KRAS G12D-GTP disruption HTRF assay (Biological Example 3); format: binding; settings: KRAS G12D, GTP-loaded
T3 construct: Avi-KRAS G12D (2-169)
T3 sequence (P01116 2-169 isoform P01116-2 G12D): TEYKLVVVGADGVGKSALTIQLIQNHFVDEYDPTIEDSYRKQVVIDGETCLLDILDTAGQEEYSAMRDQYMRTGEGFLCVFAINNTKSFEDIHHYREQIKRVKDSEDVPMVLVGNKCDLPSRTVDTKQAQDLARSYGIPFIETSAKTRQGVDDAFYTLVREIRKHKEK
Method: as §1, §2, §3, §4, §5, §6, §7

[4] = test system: SW620 cells (KRAS G12V); assay: Cell-based pERK HTRF assay in SW620 cell (Biological Example 4)
Procedure, shortened: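 SW620 cells were treated for 4 h with compound in a 9-point half-log series from 1 μM top (0.25% DMSO), then lysed. Phospho-ERK was detected by HTRF with d2 and Eu cryptate antibodies after 4–24 h at room temperature, read at 615 nm emission.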

[5] = test system: GP2d cells (KRAS G12D); assay: Cell-based pERK HTRF assay in GP2d cell (Biological Example 2); settings: GP2d (KRAS G12D) cells
Procedure, shortened: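 GP2d (KRAS G12D) cells were plated in DMEM/10% FBS and treated the next day for 60 min with compounds. Dosing used 9-point half-log series starting at 1 μM or 100 nM in 0.25% DMSO. Lysates were read by HTRF pERK (d2/Eu cryptate antibodies) after 4–24 h at room temperature, with excitation at 320 nm and emission at 615 nm.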

[6] = molecular target: T4, Avi-KRAS G12V (2-169) GTP/RAF1 RBD-3xFLAG (51-131) (Homo sapiens, UniProt P01116, G12V); assay: Raf1-KRAS G12V-GTP disruption HTRF assay (Biological Example 3); format: binding; settings: KRAS G12V, GTP-loaded
T4 construct: Avi-KRAS G12V (2-169)
T4 sequence (P01116 2-169 isoform P01116-2 G12V): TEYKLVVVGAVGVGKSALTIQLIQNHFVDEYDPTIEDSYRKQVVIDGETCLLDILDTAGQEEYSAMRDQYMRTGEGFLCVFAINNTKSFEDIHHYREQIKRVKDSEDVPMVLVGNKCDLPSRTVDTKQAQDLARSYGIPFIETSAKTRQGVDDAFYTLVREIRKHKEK
Method: as §1, §2, §3, §4, §5, §6, §7

[7] = Homo sapiens, SW-620, SW620 (KRAS G12V) cells

T1 sequence (P01116 2-169 isoform P01116-2 G12C): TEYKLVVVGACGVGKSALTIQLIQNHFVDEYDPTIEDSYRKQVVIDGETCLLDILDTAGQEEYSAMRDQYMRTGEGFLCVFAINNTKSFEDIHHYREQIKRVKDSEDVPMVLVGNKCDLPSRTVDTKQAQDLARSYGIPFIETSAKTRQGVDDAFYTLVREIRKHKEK

Row | Structure (SMILES) | IC50 [1] [µM] | IC50 [2] [µM] | IC50 [3] [µM] | IC50 [4, 7] [µM] | IC50 ([5]; GP2d) [µM] | IC50 [6] [µM] | IC50 ([4]; SW620 (KRAS G12V) cells) [µM] | IC50 [5] [µM]
1 | CCN(c1nc(OC[C@@]23CCCN2C[C@H](F)C3)nc2c(F)c(-c3ccc(F)c4sc(N)c(C#N)c34)c(C(F)(F)F)cc12)[C@H]1CCN(C(=O)c2coc(C)n2)[C@@H]1C (atropisomer, axis not shown) [Compound 899] | 0.1 to 1 | 0.1 to 1 | 0.1 to 1 | < 0.1 | < 0.1 | 0.1 to 1 |  | 
2 | C[C@@H](c1cccnc1)N(C)c1nc(OC[C@@]23CCCN2C[C@H](F)C3)nc2c(F)c(-c3ccc(F)c4sc(N)c(C#N)c34)c(C(F)(F)F)cc12 [Compound 969] | 1 to 10 | 1 to 10 | 1 to 10 | < 0.1 | < 0.1 | 1 to 10 |  | 
3 | CCN(c1nc(OC[C@@]23CCCN2C[C@H](F)C3)nc2c(F)c(-c3ccc(F)c4sc(N)c(C#N)c34)c(C(F)(F)F)cc12)[C@H]1C[C@H](C)N(C(=O)OC2COC2)C1 (atropisomer, axis not shown) [Compound 926] | 0.1 to 1 | 0.1 to 1 | 0.1 to 1 | < 0.1 | < 0.1 | 0.1 to 1 |  | 
4 | CCN(c1nc(OC[C@@]23CCCN2C[C@H](F)C3)nc2c(F)c(-c3ccc(F)c4sc(N)c(C#N)c34)c(C(F)(F)F)cc12)[C@H]1CCN(C(=O)C(CF)CF)C1 (atropisomer, axis not shown) [Compound 857] | 0.1 to 1 | 0.1 to 1 | 0.1 to 1 | < 0.1 | < 0.1 | 0.1 to 1 |  | 
5 | CCN(Cc1cccnc1)c1nc(OC[C@@]23CCCN2C[C@H](F)C3)nc2c(F)c(-c3ccc(F)c4sc(N)c(C#N)c34)c(C(F)(F)F)cc12 (atropisomer, axis not shown) [Compound 862] | 1 to 10 | 1 to 10 | 1 to 10 | < 0.1 | < 0.1 | 1 to 10 |  | 
6 | CCN(c1nc(OC[C@@]23CCCN2C[C@H](F)C3)nc2c(F)c(-c3ccc(F)c4sc(N)c(C#N)c34)c(C(F)(F)F)cc12)[C@H]1C[C@H](C)N(C(=O)[C@@H]2C[C@@H]2F)C1 (atropisomer, axis not shown) [Compound 841] | 0.1 to 1 | 0.1 to 1 | 0.1 to 1 | < 0.1 | < 0.1 | 0.1 to 1 |  | 
7 | CCN(c1nc(OC[C@@]23CCCN2C[C@H](F)C3)nc2c(F)c(-c3ccc(F)c4sc(N)c(C#N)c34)c(C(F)(F)F)cc12)[C@H]1CCN(C(=O)N2CC(F)(F)C2)C1 (atropisomer, axis not shown) [Compound 831] | 0.1 to 1 | 0.1 to 1 | 0.1 to 1 | < 0.1 | < 0.1 | 0.1 to 1 |  | 
8 | CCN(c1nc(OC[C@@]23CCCN2C[C@H](F)C3)nc2c(F)c(-c3ccc(F)c4sc(N)c(C#N)c34)c(C(F)(F)F)cc12)[C@H]1CCN(C(=O)c2cnc(C)s2)C1 (atropisomer, axis not shown) [Compound 902] | 0.1 to 1 | 0.1 to 1 | ≤ 0.1 | < 0.1 | < 0.1 | ≤ 0.1 |  | 
9 | CN(Cc1ncco1)c1nc(OC[C@@]23CCCN2C[C@H](F)C3)nc2c(F)c(-c3ccc(F)c4sc(N)c(C#N)c34)c(C(F)(F)F)cc12 (atropisomer, axis not shown) [Compound 885] | 0.1 to 1 | 1 to 10 | 0.1 to 1 | < 0.1 | < 0.1 | 0.1 to 1 |  | 
10 | CCN(c1nc(OC[C@@]23CCCN2C[C@H](F)C3)nc2c(F)c(-c3ccc(F)c4sc(N)c(C#N)c34)c(C(F)(F)F)cc12)[C@H]1C[C@H](COC)N(C(=O)[C@@H]2C[C@@H]2F)C1 (atropisomer, axis not shown) [Compound 869] | 0.1 to 1 | 0.1 to 1 | 0.1 to 1 | < 0.1 | < 0.1 | 0.1 to 1 |  | 
11 | CCN(c1nc(OC[C@@]23CCCN2C[C@H](F)C3)nc2c(F)c(-c3ccc(F)c4sc(N)c(C#N)c34)c(C(F)(F)F)cc12)[C@H]1C[C@@H](C)N(C(=O)OC2CC(OC)C2)C1 (stereo partly drawn) [Compound 895] | 0.1 to 1 | 1 to 10 | 0.1 to 1 | < 0.1 | < 0.1 | 0.1 to 1 |  | 
12 | CCN(c1nc(OC[C@]23CCCN2C[C@H](F)C3)nc2c(F)c(-c3ccc(F)c4sc(N)c(C#N)c34)c(C(F)(F)F)cc12)[C@H]1CCN(C(=O)OC)C1 (atropisomer, axis not shown) [Compound 955] | > 10 | > 10 | 1 to 10 |  |  | > 10 | 0.1 to 1 | < 0.1
13 | CCN(c1nc(OC[C@@]23CCCN2C[C@H](F)C3)nc2c(F)c(-c3ccc(F)c4sc(N)c(C#N)c34)c(C(F)(F)F)cc12)[C@@H]1CC[C@H](C(=O)N(C)C)C1 [Compound 959] | 1 to 10 | 1 to 10 | 1 to 10 | < 0.1 | < 0.1 | 1 to 10 |  | 
14 | CCN(c1nc(OC[C@@]23CCCN2C[C@H](F)C3)nc2c(F)c(-c3ccc(F)c4sc(N)c(C#N)c34)c(C(F)(F)F)cc12)[C@H]1CCN(C(=O)C2C[C@@H]2F)[C@@H]1C (stereo partly drawn) [Compound 883] | 0.1 to 1 | 0.1 to 1 | 0.1 to 1 | < 0.1 | < 0.1 | 0.1 to 1 |  | 
15 | CCN(c1nc(OC[C@@]23CCCN2C[C@H](F)C3)nc2c(F)c(-c3ccc(F)c4sc(N)c(C#N)c34)c(C(F)(F)F)cc12)[C@H]1C[C@H](COC)N(C(=O)[C@@H]2C[C@H]2F)C1 (atropisomer, axis not shown) [Compound 848] | 0.1 to 1 | 0.1 to 1 | 0.1 to 1 | < 0.1 | < 0.1 | 0.1 to 1 |  | 
